Laboratory results reported in patent US20250195511A1, “INDAZOLE DERIVATIVES USEFUL AS INHIBITORS OF NOD-LIKE RECEPTOR PROTEIN 3” (Merck Sharp & Dohme LLC, priority 2023, published 2025).

system: NLRP3 inflammasome; experiment: NLRP3 inflammasome activation: ASC-SPECK formation in gramicidin-stimulated THP-1 cells; format: cell-based; settings: Homo sapiens, THP-1, inhibition of ASC SPECK formation; PMA-treated human monocytic THP-1 cells, compound 1 h before 12.5 μg/ml gramicidin, 3-hour treatment
Method in brief: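 Undifferentiated human THP-1 cells primed overnight with 10 ng/ml PMA, then given compounds 1 h before 12.5 μg/ml gramicidin for 3 h at 37° C in RPMI with 0.01% BSA. Fixed cells immunostained for ASC with DRAQ5 nuclear counterstain; DRAQ5-positive cells with ASC specks counted by high-content imaging; EC50 from curve fitting.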

Going from `Cc1cc(C(F)(F)F)cc(O)c1-c1cnc2cn([C@H]3C[C@@H](CC#N)C3)nc2n1` [Example 18, 2-((1s,3s)-3-(6-(2-hydroxy-6-methyl-4-(trifluoromethyl)phenyl)-2H-pyrazolo[3,4-b]pyrazin-2-yl)cyclobutyl)acetonitrile] to `Cc1cc(C(F)(F)F)cc(O)c1-c1cnc2cn(C3CCP(C)(=O)CC3)nc2n1` (single isomer, unassigned) [Example 82, (1R,4R or 1S,4S)-4-(6-(2-hydroxy-6-methyl-4-(trifluoromethyl)phenyl)-2H-pyrazolo[3,4-b]pyrazin-2-yl)-1-methylphosphinane 1-oxide], the EC50 falls from 465 nM to 189 nM (2.5-fold). The second is the more potent here.

Compared with `Cc1cc(C(F)(F)F)cc(O)c1-c1cnc2cn(C34CC(C)(C3)OC4C)nc2n1` (racemic) [Example 24, (S and R)-2-(2-(1,3-dimethyl-2-oxabicyclo[2.1.1]hexan-4-yl)-2H-pyrazolo[3,4-b]pyrazin-6-yl)-3-methyl-5-(trifluoromethyl)phenol], `Cc1cc(C(F)(F)F)cc(O)c1-c1cnc2cn(C34CCC(C#N)(C3)C4)nc2n1` [Example 47, 4-[6-[2-hydroxy-6-methyl-4-(trifluoromethyl)phenyl]pyrazolo[3,4-b]pyrazin-2-yl]bicyclo[2.1.1]hexane-1-carbonitrile] is 7-fold lower in EC50: 427 nM for the first, 61 nM for the second.

Work on `Cc1cc(C(F)(F)F)cc(O)c1-c1cnc2cn(C3CCOC(C)(C)C3)nc2n1` (single isomer, unassigned) [Example 96, (S or R)-2-(2-(2,2-dimethyltetrahydro-2H-pyran-4-yl)-2H-pyrazolo[3,4-b]pyrazin-6-yl)-3-methyl-5-(trifluoromethyl)phenol] yielded an EC50 of 235 nM.

same assay, conditions: inhibition of ASC SPECK formation; PMA-treated human monocytic THP-1 cells, compound 1 h before 12.5 μg/ml gramicidin, 3-hour treatment

Compound `Cc1cc(C(F)(F)F)cc(O)c1-c1cnc2c(C(C)O)n(C3CCC(=O)N(C(C)C)C3)nc2n1` (single isomer, unassigned) [Example 118, (R or S)-5-(6-(2-hydroxy-6-methyl-4-(trifluoromethyl)phenyl)-3-((S or R)-1-hydroxyethyl)-2H-pyrazolo[3,4-b]pyrazin-2-yl)-1-isopropylpiperidin-2-one] has an EC50 of 26 nM.
